From patent publication US9297017B2, “Methods and compositions for targeted protein degradation” (University of Washington, priority 2010, dated 2016)
Values joined by “and” are separate entries in the source; they are usually repeats but may differ in a detail not shown here. Equal entries are not always repeated. Where two headings read alike, the source gives them in different places.

How the values were obtained:
COI1-JAZ6 complex = molecular target: T1, COI1-JAZ6 complex (Arabidopsis thaliana, UniProt O04197+Q9C9E3); experiment: Saturation radioligand binding of 3H-coronatine to COI1/ASK1 in the presence of JAZ6
T1 construct: Full-length Arabidopsis thaliana COI1 and ASK1 were co-expressed; Full-length JAZ substrate proteins were expressed as 6×His-fusion proteins in Escherichia coli; GST (cleaved yes); 6xHis; made in house; host or cells: Hi5 insect cells (COI1/ASK1); Escherichia coli (JAZ6)
T1 sequence (O04197 1-592): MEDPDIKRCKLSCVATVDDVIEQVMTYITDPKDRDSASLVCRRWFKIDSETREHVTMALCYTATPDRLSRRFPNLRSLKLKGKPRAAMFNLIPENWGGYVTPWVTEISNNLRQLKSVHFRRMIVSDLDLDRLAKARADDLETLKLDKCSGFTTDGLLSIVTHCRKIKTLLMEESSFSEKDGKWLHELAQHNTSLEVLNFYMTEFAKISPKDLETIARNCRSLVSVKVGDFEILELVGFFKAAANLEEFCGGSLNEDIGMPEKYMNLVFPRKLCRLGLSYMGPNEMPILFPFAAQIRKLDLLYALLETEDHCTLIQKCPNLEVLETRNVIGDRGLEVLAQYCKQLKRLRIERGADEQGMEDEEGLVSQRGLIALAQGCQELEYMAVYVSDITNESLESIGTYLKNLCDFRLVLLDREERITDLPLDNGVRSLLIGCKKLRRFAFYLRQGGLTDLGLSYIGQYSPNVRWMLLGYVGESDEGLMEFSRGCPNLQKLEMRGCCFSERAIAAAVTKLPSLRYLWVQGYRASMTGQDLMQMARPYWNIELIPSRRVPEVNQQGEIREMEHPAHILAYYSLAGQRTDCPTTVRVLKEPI
T1 sequence (Q39255 1-160 partner): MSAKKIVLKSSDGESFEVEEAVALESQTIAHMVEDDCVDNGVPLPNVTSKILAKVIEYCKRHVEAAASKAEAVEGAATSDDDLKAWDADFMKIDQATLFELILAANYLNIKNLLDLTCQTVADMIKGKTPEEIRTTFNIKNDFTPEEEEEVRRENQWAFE
T1 sequence (Q9C9E3 1-269): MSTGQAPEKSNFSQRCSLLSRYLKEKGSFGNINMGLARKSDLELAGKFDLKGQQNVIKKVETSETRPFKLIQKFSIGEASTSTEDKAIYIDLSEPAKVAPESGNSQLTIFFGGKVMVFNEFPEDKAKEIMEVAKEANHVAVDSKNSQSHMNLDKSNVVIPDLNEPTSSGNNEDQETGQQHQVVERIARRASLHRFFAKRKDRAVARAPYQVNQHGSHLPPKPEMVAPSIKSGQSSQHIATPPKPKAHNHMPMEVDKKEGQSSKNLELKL
Excerpt: (§1) (^3H)-labeled coronatine was synthesized by Amersham. Full-length Arabidopsis thaliana COI1 and ASK1 were co-expressed as a glutathione S-transferase (GST) fusion protein and an untagged protein, respectively, in Hi5 suspension insect cells. The COI1/ASK1 complex was isolated from the soluble cell lysate by glutathione affinity chromatography. After on-column tag cleavage by tobacco etch virus protease, the complex was further purified by anion exchange and gel filtration chromatography and concentrated by ultrafiltration to 12-18 mg ml^−1. Full-length JAZ substrate proteins were expressed as 6×His-fusion proteins in Escherichia coli and purified on Ni-NTA resin with subsequent dialysis into 20 mM Tris-HCl, pH 8.0, 200 mM NaCl, and 10% glycerol.
Radioligand binding was assayed on purified proteins, with 2 mg COI1/ASK1 complex and JAZ proteins at a 1:3 molar ratio. Reactions were prepared in […] final volume and in a binding buffer containing 20 mM Tris-HCl 200 mM NaCl, and 10% glycerol. Saturation binding experiments were conducted with serial dilutions of 3H-coronatine in binding buffer. Nonspecific binding was determined in the presence of […] coronatine. Competition binding experiments were conducted with serial dilutions of JA-Ile in the presence of 100 nM ^3H coronatine with nonspecific binding determined in the presence of […] coronatine. Total binding was determined in the presence of vehicle only. Two-point binding experiments were performed in the presence of 100 nM or 300 nM ^3H-coronatine with nonspecific binding determined in the presence of […] coronatine. Following incubation with mixing at 4° C., all samples were collected with a cell harvester (Brandel, Gaithersburg, Md.) on polyethyleneimine (Sigma)-treated filters. […] Saturation binding experiments were analyzed by nonlinear regression, competition binding experiments by nonlinear regression with Ki calculation as described previously (Cheng 1973), and concentration-response data by sigmoidal dose-response curve fitting, all using GraphPad Prism version 4.00 for MacOSX.

full-length JAZ1 = molecular target: T2, full-length JAZ1 (Arabidopsis thaliana, UniProt Q9LMA8); experiment: Radioligand binding of 3H-coronatine to full-length JAZ1 alone
T2 construct: 6xHis; made in house; host or cells: Escherichia coli
T2 sequence (Q9LMA8 1-253): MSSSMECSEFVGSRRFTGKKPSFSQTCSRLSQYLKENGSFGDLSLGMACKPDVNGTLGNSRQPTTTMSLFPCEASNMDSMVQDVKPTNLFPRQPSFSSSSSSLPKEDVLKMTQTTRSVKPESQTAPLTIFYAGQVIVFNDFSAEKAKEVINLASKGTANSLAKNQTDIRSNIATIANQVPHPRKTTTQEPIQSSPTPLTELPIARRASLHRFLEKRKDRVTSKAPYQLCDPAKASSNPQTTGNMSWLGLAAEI
Excerpt: as §1
Radioligand binding was assayed on purified proteins, with 2 mg COI1/ASK1 complex and JAZ proteins at a 1:3 molar ratio. […] Nonspecific binding was determined in the presence of […] coronatine. Competition binding experiments were conducted with serial dilutions of JA-Ile in the presence of 100 nM ^3H coronatine with nonspecific binding determined in the presence of […] coronatine. Total binding was determined in the presence of vehicle only. Two-point binding experiments were performed in the presence of 100 nM or 300 nM ^3H-coronatine with nonspecific binding determined in the presence of 300 mM coronatine. […]

COI1/JAZ1 co-receptor = molecular target: T3, COI1/JAZ1 co-receptor (Arabidopsis thaliana, UniProt O04197+Q9LMA8); experiment: Ligand-binding based reconstitution assay (inositol phosphate rescue) with dialyzed COI1/ASK1 and JAZ1
T3 construct: Full-length Arabidopsis thaliana COI1 and ASK1 were co-expressed; Full-length JAZ substrate proteins were expressed as 6×His-fusion proteins in Escherichia coli; GST (cleaved yes); 6xHis; made in house; host or cells: Hi5 insect cells (COI1/ASK1); Escherichia coli (JAZ1)
T3 sequence (O04197 1-592): T1 sequence (O04197 1-592)
T3 sequence (Q39255 1-160 partner): T1 sequence (Q39255 1-160 partner)
T3 sequence (Q9LMA8 1-253): T2 sequence (Q9LMA8 1-253)
Experimental: Radioligand binding was assayed on purified proteins, with 2 mg COI1/ASK1 complex and JAZ proteins at a 1:3 molar ratio. Reactions were prepared in […] final volume and in a binding buffer containing 20 mM Tris-HCl 200 mM NaCl, and 10% glycerol. Saturation binding experiments were conducted with serial dilutions of 3H-coronatine in binding buffer. Nonspecific binding was determined in the presence of […] coronatine. Competition binding experiments were conducted with serial dilutions of JA-Ile in the presence of 100 nM ^3H coronatine with nonspecific binding determined in the presence of […] coronatine. Total binding was determined in the presence of vehicle only. Two-point binding experiments were performed in the presence of 100 nM or 300 nM ^3H-coronatine with nonspecific binding determined in the presence of […] coronatine. Following incubation with mixing at 4° C., all samples were collected with a cell harvester (Brandel, Gaithersburg, Md.) on polyethyleneimine (Sigma)-treated filters. Samples were incubated in liquid scintillation fluid for >1 hour before counting with a Packard Tri-Carb 2200 CA liquid scintillation analyzer (Packard Instrument Co.). Saturation binding experiments were analyzed by nonlinear regression, competition binding experiments by nonlinear regression with Ki calculation as described previously (Cheng 1973), and concentration-response data by sigmoidal dose-response curve fitting, all using GraphPad Prism version 4.00 for MacOSX.
To assess the functional role of Ins(1,2,4,5,6)P5 in the COI1/JAZ1 co-receptor, a protocol was developed for stripping the co-purified InsP5 from COI1 without denaturing the protein. Briefly, proteins were mixed with 10% glycerol and incubated in 2 M ammonium phosphate, 100 mM Bis-Tris propane, pH 7.0, 200 mM NaCl, and 10% glycerol at 4° C. for >24 hours with a minimum of 3× buffer changes at 100× sample volume. Samples were then transferred to 20 mM Tris-HCl, pH 8.0, 200 mM NaCl, and 10% glycerol at 4° C. for >24 hours with a minimum of three buffer changes at 100× sample volume. Inositol phosphate rescue experiments were conducted according to the radioligand binding assays described above in the presence of 300 nM ^3H-coronatine with nonspecific binding determined in the presence of 300 μM coronatine.
The resulting COI1/ASK1 complex was tested in a ligand-binding based reconstitution assay. […] From this reconstitution result, it was concluded that Ins(1,2,4,5,6)P5 binding is crucial for the jasmonate coreceptor to perceive the hormone with high sensitivity.

## CC[C@H]1C=C(C(=O)N[C@@]2(C(=O)O)C[C@@H]2CC)[C@H]2CCC(=O)[C@H]2C1 [coronatine]
COI1-JAZ6 complex
  Binding affinity for COI1/JAZ6 complex: high affinity
COI1-JAZ6 complex; COI1/JAZ6 complex
  Concentration at which binding reached the level of saturation: 300 nM
COI1-JAZ6 complex; COI1/JAZ6 complex, listed as 3H-coronatine
  Kd: 48 nM and 68 nM
full-length JAZ1
  Binding affinity for JAZ1 alone: minimal binding affinity
full-length JAZ1; listed as 3H-coronatine
  Binding affinity for JAZ1 alone: no appreciable binding affinity
COI1/JAZ1 co-receptor; 1 μM Ins(1,2,4,5,6)P5, read-out: Kd, saturation binding of 3H-coronatine to dialyzed COI1 in the presence of InsP5
  Kd: 30 nM
COI1/JAZ1 co-receptor; 1 μM InsP6, read-out: Kd, saturation binding of 3H-coronatine to dialyzed COI1 in the presence of InsP6
  Kd: 37 nM
